Experimental data: patent publication US4415577A, “Bis-sparteine derivatives and method of using same in therapy” (Kali-Chemie Pharma GmbH, priority 1980, dated 1983)
Structures can show the parent of a compound that is named as a salt.

Columns and labels:
[1] = tested on: aconitin-induced arrhythmic effects; assay: aconitin-induced arrhythmia test (Aconitine test), oral; assay type: in vivo, rat (male Wistar); details: for minimal effective dose: Rattus norvegicus, po, 3 h, read-out: Aconitine test, effective dose per os
Method: The influence of the novel compound on aconitin-induced arrhythmic effects is determined on male Wistar rats (weighing 280-350 g) which are treated with an aconitin infusion according to the method of Raschak (M. Raschak, Arzneim. Forschung (Drug Research) 25 (1975) pp. 639-641). The effective dose which is given in μmol/kg, is the dose which cause a significant difference in time between the starting of the aconitin-induced arrhythmic effect in animals treated with the active ingredient and the starting of this aconitin-induced effect in an untreated control group of animals. In order to be considered effective the dose must cause a significant prolongation of the period until the aconitin-induced arrhythmic effects start, and it must be effective against at least two of the aconitin-induced arrhythmic symptoms (extrasystoles, ventricular flutter, ventricular tachycardia). The test compound is applied orally inform of a 2% suspension of tylose ^R MH 50 three hours before the aconitin-infusion is started.
As a standard dose one tenth of the LD50 in mice is used. If a test compound is effective at this dose, the dose is reduced in a following test. The statistical t-test method according to Student using logarithmic values of the effective values is used for significance testing (see Lothar Sachs, Statistische Auswertungsmethoden, Springer Verlag 1969).

isolated left atria = assay: prolongation of the functional refractory period (FRP), double stimulus method of Govier; parameters: species or system guinea pig (female albino-pirbright-white); details: Cavia porcellus, 0.3 h; isolated left atria of female guinea pigs, 18 minutes after application; read-out: FRP 125% (concentration causing prolongation of the functional refractory period to 125%)
[2] = acute toxicity (LD50) in mice after oral administration; assay type: in vivo, mouse (male NMRI); details: mouse, in vivo; male NMRI-mice, oral, 50% mortality on the 7th day; read-out: LD50 per os
Method: (§1) The acute toxicity of the compounds is determined in male NMRI-mice (body weight range 18-22 g) after oral (p.o) administration. The LD50 is defined as that dose in μmol/kg which causes a 50% mortality rate of the test animals on the 7th day after application. The calculation of the LD50 is carried out by probitanalysis (see L. Cavalli-Sforza, Grundbegriffe der Biometric, Gustav Fischer Verlag Stuttgart (1964).

male NMRI-mice = assay: as above; assay type: in vivo, mouse (male NMRI); details: comparison in words
Method: as §1

| SMILES | minimal effective dose [1] | EC (125%) (isolated left atria) | LD50 at 168 h [2] | effectiveness compared with the known tested sparteine compounds ([1]; conclusion in words from table 1) | effect after oral application, after a period of 3 hours ([1]; oral, after 3 hours, same conditions for known compounds) | toxicity compared with known sparteine derivatives (male NMRI-mice) |
| --- | --- | --- | --- | --- | --- | --- |
| C1CCN2C[C@@H]3C[C@@H]([C@@H]([C@@H]4[C@@H]5C[C@@H](CN6CCCC[C@H]56)[C@@H]5CCCCN45)N4CCCC[C@@H]34)[C@H]2C1 [17S,17'S-bissparteine ditartrate] | 33 µmol/kg | 5 µM | > 1900 µmol/kg |  |  |  |
| C1CCN2C[C@@H]3C[C@@H]([C@@H]([C@@H]4[C@@H]5C[C@@H](CN6CCCC[C@H]56)[C@@H]5CCCCN45)N4CCCC[C@@H]34)[C@H]2C1 [17S,17'S-bissparteine] |  |  |  | more effective than the known tested sparteine compounds | retains its good effect even after a period of 3 hours | less toxic |
| CCCCCC1C2CC(CN3CCCCC23)C2CCCCN21 (stereo not drawn) [Pentyl sparteine tartrate] | > 180 µmol/kg | 9 µM | 1800 µmol/kg |  |  |  |
| C1CCN2C[C@@H]3C[C@@H](CN4CCCC[C@@H]34)[C@H]2C1 [Sparteine sulfate] | > 54 µmol/kg | 34 µM | 540 µmol/kg |  |  |  |
